# Test results taken from patent US10322111B2, “Chemokine receptor binding heterocyclic compounds with enhanced efficacy” (Genzyme Corporation, priority 2001, dated 2019).
# Where two headings read alike, the source gives them in different places.
# System: unseparated and low density nucleated cells
# Conditions: 80 μg/kg s.c.; for % CHG, nucleated cellularity PBL-LD / % CHG, nucleated cellularity PBL-US / Fold Change Compared to TIME = 0, nucleated cellularity PBL-LD, MEAN / Fold Change Compared to TIME = 0, nucleated cellularity PBL-US, MEAN: average of 5 donors
compound,measurement,setting,value
"c1cc(CN2CCCNCCNCCCNCC2)ccc1CN1CCCNCCNCCCNCC1 [AMD3100, 1,1′-[1,4-phenylene-bis(methylene)]-bis-1,4,8,11-tetraazacyclotetradecane]","FOLD CHANGE COMPARED TO TIME = 0, nucleated cellularity PBL-US","P1, T = 3 h after injection",3.55 fold
same,"FOLD CHANGE COMPARED TO TIME = 0, nucleated cellularity PBL-LD","P1, T = 6 h after injection",4.07 fold
same,"FOLD CHANGE COMPARED TO TIME = 0, nucleated cellularity PBL-US","P1, T = 6 h after injection",3.97 fold
same,"FOLD CHANGE COMPARED TO TIME = 0, nucleated cellularity PBL-LD","P1, T = 9 h after injection",3.65 fold
same,"FOLD CHANGE COMPARED TO TIME = 0, nucleated cellularity PBL-US","P1, T = 9 h after injection",3.27 fold
same,"FOLD CHANGE COMPARED TO TIME = 0, nucleated cellularity PBL-LD","P1, T = 24 h after injection",1.01 fold
same,"FOLD CHANGE COMPARED TO TIME = 0, nucleated cellularity PBL-US","P1, T = 24 h after injection",1.21 fold
same,"FOLD CHANGE COMPARED TO TIME = 0, nucleated cellularity PBL-LD","P2, T = 1 h after injection",1.99 fold
same,"FOLD CHANGE COMPARED TO TIME = 0, nucleated cellularity PBL-US","P2, T = 1 h after injection",1.38 fold
same,"FOLD CHANGE COMPARED TO TIME = 0, nucleated cellularity PBL-LD","P2, T = 3 h after injection",3.25 fold
same,"FOLD CHANGE COMPARED TO TIME = 0, nucleated cellularity PBL-US","P2, T = 3 h after injection",2.74 fold
same,"FOLD CHANGE COMPARED TO TIME = 0, nucleated cellularity PBL-LD","P2, T = 6 h after injection",3.90 fold
same,"FOLD CHANGE COMPARED TO TIME = 0, nucleated cellularity PBL-US","P2, T = 6 h after injection",2.94 fold
same,"FOLD CHANGE COMPARED TO TIME = 0, nucleated cellularity PBL-LD","P2, T = 9 h after injection",4.43 fold
same,"FOLD CHANGE COMPARED TO TIME = 0, nucleated cellularity PBL-US","P2, T = 9 h after injection",3.30 fold
same,"FOLD CHANGE COMPARED TO TIME = 0, nucleated cellularity PBL-LD","P2, T = 24 h after injection",1.71 fold
same,"FOLD CHANGE COMPARED TO TIME = 0, nucleated cellularity PBL-US","P2, T = 24 h after injection",1.43 fold
same,"FOLD CHANGE COMPARED TO TIME = 0, nucleated cellularity PBL-LD","P3, T = 1 h after injection",1.48 fold
same,"FOLD CHANGE COMPARED TO TIME = 0, nucleated cellularity PBL-US","P3, T = 1 h after injection",1.38 fold
same,"FOLD CHANGE COMPARED TO TIME = 0, nucleated cellularity PBL-LD","P3, T = 3 h after injection",2.17 fold
same,"FOLD CHANGE COMPARED TO TIME = 0, nucleated cellularity PBL-US","P3, T = 3 h after injection",2.02 fold
same,"FOLD CHANGE COMPARED TO TIME = 0, nucleated cellularity PBL-LD","P3, T = 6 h after injection",2.27 fold
same,"FOLD CHANGE COMPARED TO TIME = 0, nucleated cellularity PBL-US","P3, T = 6 h after injection",2.74 fold
same,"FOLD CHANGE COMPARED TO TIME = 0, nucleated cellularity PBL-LD","P3, T = 9 h after injection",2.47 fold
same,"FOLD CHANGE COMPARED TO TIME = 0, nucleated cellularity PBL-US","P3, T = 9 h after injection",2.69 fold
same,"FOLD CHANGE COMPARED TO TIME = 0, nucleated cellularity PBL-LD","P3, T = 24 h after injection",0.79 fold
same,"FOLD CHANGE COMPARED TO TIME = 0, nucleated cellularity PBL-US","P3, T = 24 h after injection",0.96 fold
same,"FOLD CHANGE COMPARED TO TIME = 0, nucleated cellularity PBL-LD","P4, T = 1 h after injection",1.66 fold
same,"FOLD CHANGE COMPARED TO TIME = 0, nucleated cellularity PBL-US","P4, T = 1 h after injection",1.36 fold
same,"FOLD CHANGE COMPARED TO TIME = 0, nucleated cellularity PBL-LD","P4, T = 3 h after injection",2.82 fold
same,"FOLD CHANGE COMPARED TO TIME = 0, nucleated cellularity PBL-US","P4, T = 3 h after injection",2.46 fold
same,"FOLD CHANGE COMPARED TO TIME = 0, nucleated cellularity PBL-LD","P4, T = 6 h after injection",2.78 fold
same,"FOLD CHANGE COMPARED TO TIME = 0, nucleated cellularity PBL-US","P4, T = 6 h after injection",2.60 fold
same,"FOLD CHANGE COMPARED TO TIME = 0, nucleated cellularity PBL-LD","P4, T = 9 h after injection",2.48 fold
same,"FOLD CHANGE COMPARED TO TIME = 0, nucleated cellularity PBL-US","P4, T = 9 h after injection",2.24 fold
same,"FOLD CHANGE COMPARED TO TIME = 0, nucleated cellularity PBL-LD","P4, T = 24 h after injection",0.60 fold
same,"FOLD CHANGE COMPARED TO TIME = 0, nucleated cellularity PBL-US","P4, T = 24 h after injection",0.77 fold
same,"FOLD CHANGE COMPARED TO TIME = 0, nucleated cellularity PBL-LD","P5, T = 1 h after injection",2.10 fold
same,"FOLD CHANGE COMPARED TO TIME = 0, nucleated cellularity PBL-US","P5, T = 1 h after injection",1.76 fold
same,"FOLD CHANGE COMPARED TO TIME = 0, nucleated cellularity PBL-LD","P5, T = 3 h after injection",3.20 fold
same,"FOLD CHANGE COMPARED TO TIME = 0, nucleated cellularity PBL-US","P5, T = 3 h after injection",3.23 fold
same,"FOLD CHANGE COMPARED TO TIME = 0, nucleated cellularity PBL-LD","P5, T = 6 h after injection",5.30 fold
same,"FOLD CHANGE COMPARED TO TIME = 0, nucleated cellularity PBL-US","P5, T = 6 h after injection",4.04 fold
same,"FOLD CHANGE COMPARED TO TIME = 0, nucleated cellularity PBL-LD","P5, T = 9 h after injection",5.17 fold
same,"FOLD CHANGE COMPARED TO TIME = 0, nucleated cellularity PBL-US","P5, T = 9 h after injection",3.96 fold
same,"FOLD CHANGE COMPARED TO TIME = 0, nucleated cellularity PBL-LD","P5, T = 24 h after injection",1.12 fold
same,"FOLD CHANGE COMPARED TO TIME = 0, nucleated cellularity PBL-US","P5, T = 24 h after injection",0.99 fold
same,"% CHG, nucleated cellularity PBL-LD",T = 1 h after injection,86.2%
same,"% CHG, nucleated cellularity PBL-US",T = 1 h after injection,68.6%
same,"Fold Change Compared to TIME = 0, nucleated cellularity PBL-LD, MEAN",T = 1 h after injection,1.86 fold
same,"Fold Change Compared to TIME = 0, nucleated cellularity PBL-US, MEAN",T = 1 h after injection,1.69 fold
same,"% CHG, nucleated cellularity PBL-LD",T = 3 h after injection,185.6%
same,"% CHG, nucleated cellularity PBL-US",T = 3 h after injection,180.2%
same,"Fold Change Compared to TIME = 0, nucleated cellularity PBL-LD, MEAN",T = 3 h after injection,2.86 fold
same,"Fold Change Compared to TIME = 0, nucleated cellularity PBL-US, MEAN",T = 3 h after injection,2.80 fold
same,"% CHG, nucleated cellularity PBL-LD",T = 6 h after injection,266.3%
same,"% CHG, nucleated cellularity PBL-US",T = 6 h after injection,225.8%
same,"Fold Change Compared to TIME = 0, nucleated cellularity PBL-LD, MEAN",T = 6 h after injection,3.66 fold
same,"Fold Change Compared to TIME = 0, nucleated cellularity PBL-US, MEAN",T = 6 h after injection,3.26 fold
same,"% CHG, nucleated cellularity PBL-LD",T = 9 h after injection,264.3%
same,"% CHG, nucleated cellularity PBL-US",T = 9 h after injection,209.4%
same,"Fold Change Compared to TIME = 0, nucleated cellularity PBL-LD, MEAN",T = 9 h after injection,3.64 fold
same,"Fold Change Compared to TIME = 0, nucleated cellularity PBL-US, MEAN",T = 9 h after injection,3.09 fold
same,"% CHG, nucleated cellularity PBL-LD",T = 24 h after injection,4.6%
same,"% CHG, nucleated cellularity PBL-US",T = 24 h after injection,7.0%
same,"Fold Change Compared to TIME = 0, nucleated cellularity PBL-LD, MEAN",T = 24 h after injection,1.05 fold
same,"Fold Change Compared to TIME = 0, nucleated cellularity PBL-US, MEAN",T = 24 h after injection,1.07 fold
